Results as given in patent US10724099B2, “Multiplex methods to assay mixed cell populations simultaneously” (The Broad Institute, Inc., priority 2012, dated 2020).

How the values were obtained:
[1] = target: T1, ULK2 (Homo sapiens, UniProt Q8IYT8); assay: DiscoveRx KinomeScan binding
T1 construct: purchased DiscoveRx scanEDGE panel

[2] = target: T2, PIK3CA (Homo sapiens, UniProt P42336); assay: DiscoveRx KinomeScan binding
T2 construct: purchased DiscoveRx scanEDGE panel

[3] = target: T3, BRAF(V600E) (Homo sapiens, UniProt P15056, V600E); assay: DiscoveRx KinomeScan binding
T3 construct: purchased DiscoveRx (KINOMEscan scanEDGE panel)

[4] = target: T4, PIM1 (Homo sapiens, UniProt P11309); assay: DiscoveRx KinomeScan binding
T4 construct: purchased DiscoveRx scanEDGE panel

[5] = target: T5, PLK1 (Homo sapiens, UniProt P53350); assay: DiscoveRx KinomeScan binding
T5 construct: purchased DiscoveRx scanEDGE panel

[6] = target: T6, KIT(V559D,T670I) (Homo sapiens, UniProt P10721, T670I/V559D); assay: DiscoveRx KinomeScan binding
T6 construct: purchased DiscoveRx scanEDGE panel (KinomeScan)

[7] = target: T7, RAF1 (Homo sapiens, UniProt P04049); assay: DiscoveRx KinomeScan binding
T7 construct: purchased DiscoveRx scanEDGE panel

[8] = target: T8, ABL1---nonphosphorylated (Homo sapiens, UniProt P00519); assay: DiscoveRx KinomeScan binding; details: Entrez ABL1
T8 construct: purchased DiscoveRx (KINOMEscan scanEDGE panel)

[9] = target: T9, SRPK3 (Homo sapiens, UniProt Q9UPE1); assay: DiscoveRx KinomeScan binding
T9 construct: purchased DiscoveRx scanEDGE panel

[10] = target: T10, TGFBR1 (Homo sapiens, UniProt P36897); assay: DiscoveRx KinomeScan binding
T10 construct: purchased DiscoveRx scanEDGE panel

[11] = test system: 308 kinases; assay: Kinase activity profiling, Millipore KinaseProfiler; format: biochemical
[12] = target: T11, RET (Homo sapiens, UniProt P07949); assay: DiscoveRx KinomeScan binding
T11 construct: purchased DiscoveRx scanEDGE panel

[13] = target: T12, JNK3 (Homo sapiens, UniProt P53779); assay: DiscoveRx KinomeScan binding; details: Entrez MAPK10
T12 construct: purchased DiscoveRx scanEDGE panel (KinomeScan)

[14] = target: T13, MKNK2 (Homo sapiens, UniProt Q9HBH9); assay: DiscoveRx KinomeScan binding
T13 construct: purchased DiscoveRx scanEDGE panel (KinomeScan)

[15] = target: T14, AURKA (Homo sapiens, UniProt O14965); assay: DiscoveRx KinomeScan binding
T14 construct: purchased DiscoveRx (KINOMEscan scanEDGE panel)
T14 sequence (O14965 whole entry): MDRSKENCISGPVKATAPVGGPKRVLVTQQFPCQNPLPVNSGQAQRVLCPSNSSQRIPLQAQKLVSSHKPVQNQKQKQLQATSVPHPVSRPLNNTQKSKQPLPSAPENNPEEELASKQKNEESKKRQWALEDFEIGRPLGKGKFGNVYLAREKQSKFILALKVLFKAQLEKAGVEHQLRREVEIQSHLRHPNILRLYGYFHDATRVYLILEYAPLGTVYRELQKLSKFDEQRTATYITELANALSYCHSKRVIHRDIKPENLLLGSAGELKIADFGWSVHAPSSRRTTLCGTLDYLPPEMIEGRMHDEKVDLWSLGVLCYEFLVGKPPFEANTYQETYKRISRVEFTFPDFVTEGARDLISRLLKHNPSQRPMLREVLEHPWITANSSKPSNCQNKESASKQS

[16] = target: T15, AURKC (Homo sapiens, UniProt Q9UQB9); assay: DiscoveRx KinomeScan binding
T15 construct: purchased DiscoveRx (KINOMEscan; added to the scanEDGE panel)
T15 sequence (Q9UQB9 whole entry): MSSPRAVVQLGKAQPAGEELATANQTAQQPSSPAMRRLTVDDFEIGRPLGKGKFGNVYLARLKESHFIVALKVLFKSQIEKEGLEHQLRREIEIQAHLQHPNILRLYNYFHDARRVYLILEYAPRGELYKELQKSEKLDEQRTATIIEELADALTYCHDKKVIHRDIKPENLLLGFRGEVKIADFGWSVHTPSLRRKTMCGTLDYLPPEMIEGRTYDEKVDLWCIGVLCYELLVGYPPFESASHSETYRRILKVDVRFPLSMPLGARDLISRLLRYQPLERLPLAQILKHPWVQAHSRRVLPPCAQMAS

[17] = target: T16, TSSK1B (Homo sapiens, UniProt Q9BXA7); assay: DiscoveRx KinomeScan binding
T16 construct: purchased DiscoveRx scanEDGE panel

[18] = target: T17, LKB1 (Homo sapiens, UniProt Q15831); assay: DiscoveRx KinomeScan binding; details: Entrez STK11
T17 construct: purchased DiscoveRx scanEDGE panel (KinomeScan)

[19] = target: T18, BMPR2 (Homo sapiens, UniProt Q13873); assay: DiscoveRx KinomeScan binding
T18 construct: purchased DiscoveRx (KINOMEscan scanEDGE panel)
T18 sequence (Q13873 27-1038): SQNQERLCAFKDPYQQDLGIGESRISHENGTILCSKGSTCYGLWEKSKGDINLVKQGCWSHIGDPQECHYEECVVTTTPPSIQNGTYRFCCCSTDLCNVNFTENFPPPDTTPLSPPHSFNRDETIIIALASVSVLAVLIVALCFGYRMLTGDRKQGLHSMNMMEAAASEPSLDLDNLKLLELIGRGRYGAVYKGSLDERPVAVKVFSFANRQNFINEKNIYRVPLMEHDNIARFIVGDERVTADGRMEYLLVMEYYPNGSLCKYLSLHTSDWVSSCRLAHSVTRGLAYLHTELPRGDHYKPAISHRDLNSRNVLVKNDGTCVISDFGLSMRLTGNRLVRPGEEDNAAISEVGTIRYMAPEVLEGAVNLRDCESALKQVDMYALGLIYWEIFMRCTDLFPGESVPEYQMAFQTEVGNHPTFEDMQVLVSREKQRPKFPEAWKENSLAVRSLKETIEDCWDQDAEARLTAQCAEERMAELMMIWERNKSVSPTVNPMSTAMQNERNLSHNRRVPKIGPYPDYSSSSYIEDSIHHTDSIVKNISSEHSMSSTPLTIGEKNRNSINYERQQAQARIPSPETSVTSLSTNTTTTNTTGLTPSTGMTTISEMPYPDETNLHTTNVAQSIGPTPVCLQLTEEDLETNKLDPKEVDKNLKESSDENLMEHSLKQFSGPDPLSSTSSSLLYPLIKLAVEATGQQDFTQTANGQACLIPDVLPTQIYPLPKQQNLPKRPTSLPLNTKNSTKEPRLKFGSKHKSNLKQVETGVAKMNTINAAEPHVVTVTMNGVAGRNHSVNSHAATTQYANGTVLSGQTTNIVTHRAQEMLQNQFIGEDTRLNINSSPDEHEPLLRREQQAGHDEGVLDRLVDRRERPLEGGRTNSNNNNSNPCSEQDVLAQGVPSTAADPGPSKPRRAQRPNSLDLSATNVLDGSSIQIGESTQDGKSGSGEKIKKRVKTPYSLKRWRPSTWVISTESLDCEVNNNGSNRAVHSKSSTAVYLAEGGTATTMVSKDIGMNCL

[20] = target: T19, CDK9 (Homo sapiens, UniProt P50750); assay: DiscoveRx KinomeScan binding
T19 construct: purchased DiscoveRx scanEDGE panel
T19 sequence (P50750 whole entry): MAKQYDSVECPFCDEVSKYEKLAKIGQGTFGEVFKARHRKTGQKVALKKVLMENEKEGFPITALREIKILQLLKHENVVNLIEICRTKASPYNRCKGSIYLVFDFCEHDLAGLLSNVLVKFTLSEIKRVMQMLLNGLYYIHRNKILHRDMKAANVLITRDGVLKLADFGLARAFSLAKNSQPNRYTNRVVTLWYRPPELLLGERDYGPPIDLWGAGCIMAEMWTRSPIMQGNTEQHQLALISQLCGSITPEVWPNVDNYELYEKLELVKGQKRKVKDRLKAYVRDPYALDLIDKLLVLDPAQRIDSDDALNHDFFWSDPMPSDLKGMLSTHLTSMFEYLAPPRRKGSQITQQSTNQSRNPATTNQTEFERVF

[21] = target: T20, INSR (Homo sapiens, UniProt P06213); assay: DiscoveRx KinomeScan binding
T20 construct: purchased DiscoveRx scanEDGE panel

[22] = target: T21, ERBB2 (Homo sapiens, UniProt P04626); assay: DiscoveRx KinomeScan binding
T21 construct: purchased DiscoveRx scanEDGE panel

[23] = target: T22, KIT (Homo sapiens, UniProt P10721); assay: DiscoveRx KinomeScan binding
T22 construct: purchased DiscoveRx scanEDGE panel (KinomeScan)

[24] = target: T23, MAP3K4 (Homo sapiens, UniProt Q9Y6R4); assay: DiscoveRx KinomeScan binding
T23 construct: purchased DiscoveRx scanEDGE panel (KinomeScan)

[25] = target: T24, ERK1 (Homo sapiens, UniProt P27361); assay: DiscoveRx KinomeScan binding; details: Entrez MAPK3
T24 construct: purchased DiscoveRx scanEDGE panel

[26] = target: T25, IGF1R (Homo sapiens, UniProt P08069); assay: DiscoveRx KinomeScan binding
T25 construct: purchased DiscoveRx scanEDGE panel
T25 sequence (P08069 31-1367): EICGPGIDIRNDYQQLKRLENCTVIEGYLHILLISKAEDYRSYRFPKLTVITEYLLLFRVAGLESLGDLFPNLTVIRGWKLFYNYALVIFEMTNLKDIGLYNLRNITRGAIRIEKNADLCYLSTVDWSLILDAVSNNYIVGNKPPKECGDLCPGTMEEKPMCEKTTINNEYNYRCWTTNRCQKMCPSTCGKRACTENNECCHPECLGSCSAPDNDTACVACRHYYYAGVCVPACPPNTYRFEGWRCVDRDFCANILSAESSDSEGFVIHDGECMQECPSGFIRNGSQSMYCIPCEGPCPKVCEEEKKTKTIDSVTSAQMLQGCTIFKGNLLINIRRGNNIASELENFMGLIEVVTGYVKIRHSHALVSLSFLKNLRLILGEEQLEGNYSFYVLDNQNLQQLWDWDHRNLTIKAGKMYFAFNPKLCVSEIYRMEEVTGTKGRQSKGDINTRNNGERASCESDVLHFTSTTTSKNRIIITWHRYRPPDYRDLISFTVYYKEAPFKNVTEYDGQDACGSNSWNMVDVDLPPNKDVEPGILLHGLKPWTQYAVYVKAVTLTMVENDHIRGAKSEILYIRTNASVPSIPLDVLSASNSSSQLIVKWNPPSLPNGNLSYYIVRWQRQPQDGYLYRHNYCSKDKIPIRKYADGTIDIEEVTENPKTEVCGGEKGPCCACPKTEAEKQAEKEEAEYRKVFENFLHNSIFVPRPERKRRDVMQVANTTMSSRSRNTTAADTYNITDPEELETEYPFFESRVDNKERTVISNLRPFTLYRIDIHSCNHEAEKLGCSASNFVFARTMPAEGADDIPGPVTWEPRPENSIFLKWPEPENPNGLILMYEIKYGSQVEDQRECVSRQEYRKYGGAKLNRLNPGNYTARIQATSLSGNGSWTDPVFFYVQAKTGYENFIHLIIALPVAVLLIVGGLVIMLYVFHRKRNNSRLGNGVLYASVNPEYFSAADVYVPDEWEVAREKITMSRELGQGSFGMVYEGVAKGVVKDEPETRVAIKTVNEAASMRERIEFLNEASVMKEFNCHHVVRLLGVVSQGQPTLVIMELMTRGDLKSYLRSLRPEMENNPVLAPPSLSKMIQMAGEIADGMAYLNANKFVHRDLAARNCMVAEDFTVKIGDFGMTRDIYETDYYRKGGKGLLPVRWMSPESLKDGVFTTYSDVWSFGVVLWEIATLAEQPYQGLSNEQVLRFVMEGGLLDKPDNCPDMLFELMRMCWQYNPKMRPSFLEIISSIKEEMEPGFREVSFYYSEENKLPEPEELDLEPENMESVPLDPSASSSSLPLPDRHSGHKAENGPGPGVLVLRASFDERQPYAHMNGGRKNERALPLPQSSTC

[27] = target: T26, ERBB4 (Homo sapiens, UniProt Q15303); assay: DiscoveRx KinomeScan binding
T26 construct: purchased DiscoveRx scanEDGE panel

[28] = test system: 102 barcoded cell lines; assay: PRISM, 102 barcoded cell lines in pools; format: cell-based; details: 102 cell lines
From the text: PRISM was used to identify novel anticancer compounds, using a set of 102 barcoded cell lines including 90 non-small cell lung adenocarcinoma lines (and 2 duplicate lines with different barcode labels) and 10 remaining cell lines representing other tissues of origins.
Using the AUC for each cell line's response to BRD-7880, a PRISM “activity profile” was created to query whether the sensitivity pattern of BRD-7880 across the cell line panel was related to any of the tool compounds assayed in parallel. […] Thus it was hypothesized that BRD-7880 was functioning as an inhibitor of aurora kinases.

[29] = target: T27, p38---alpha (Homo sapiens, UniProt Q16539); assay: DiscoveRx KinomeScan binding; details: Entrez MAPK14
T27 construct: purchased DiscoveRx scanEDGE panel (KinomeScan)

[30] = target: T28, TYK2(JH1domain---catalytic) (Homo sapiens, UniProt P29597); assay: DiscoveRx KinomeScan binding
T28 construct: TYK2(JH1domain---catalytic); purchased DiscoveRx scanEDGE panel
T28 sequence (P29597 897-1176 limits assumed): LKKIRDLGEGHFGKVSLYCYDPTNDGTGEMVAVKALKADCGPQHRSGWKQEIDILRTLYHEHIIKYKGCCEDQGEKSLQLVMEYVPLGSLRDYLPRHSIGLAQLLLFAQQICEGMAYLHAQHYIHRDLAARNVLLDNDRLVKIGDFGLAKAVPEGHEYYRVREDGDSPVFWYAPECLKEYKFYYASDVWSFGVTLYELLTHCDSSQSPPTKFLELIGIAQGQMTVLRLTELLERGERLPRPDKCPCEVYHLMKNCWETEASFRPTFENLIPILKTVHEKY

[31] = target: T29, DCAMKL1 (Homo sapiens, UniProt O15075); assay: DiscoveRx KinomeScan binding; details: Entrez DCLK1
T29 construct: purchased DiscoveRx scanEDGE panel

[32] = target: T30, PLK4 (Homo sapiens, UniProt O00444); assay: DiscoveRx KinomeScan binding
T30 construct: purchased DiscoveRx scanEDGE panel

[33] = target: T31, PAK4 (Homo sapiens, UniProt O96013); assay: DiscoveRx KinomeScan binding
T31 construct: purchased DiscoveRx scanEDGE panel (KinomeScan)
T31 sequence (O96013 whole entry): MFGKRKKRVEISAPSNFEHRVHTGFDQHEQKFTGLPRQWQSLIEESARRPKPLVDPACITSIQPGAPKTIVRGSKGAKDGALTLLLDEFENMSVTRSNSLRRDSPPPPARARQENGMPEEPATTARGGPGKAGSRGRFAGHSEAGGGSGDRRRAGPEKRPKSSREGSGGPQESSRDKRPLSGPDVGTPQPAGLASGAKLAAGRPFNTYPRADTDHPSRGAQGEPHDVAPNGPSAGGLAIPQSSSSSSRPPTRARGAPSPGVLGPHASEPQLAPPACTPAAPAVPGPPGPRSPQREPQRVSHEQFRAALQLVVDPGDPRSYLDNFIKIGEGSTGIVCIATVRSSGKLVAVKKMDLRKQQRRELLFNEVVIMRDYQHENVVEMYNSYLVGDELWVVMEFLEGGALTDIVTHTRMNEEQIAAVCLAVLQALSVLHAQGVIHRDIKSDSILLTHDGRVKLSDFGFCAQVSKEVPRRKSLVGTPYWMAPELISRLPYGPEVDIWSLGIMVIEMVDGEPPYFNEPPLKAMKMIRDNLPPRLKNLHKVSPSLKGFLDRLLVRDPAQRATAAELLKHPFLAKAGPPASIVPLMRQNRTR

[34] = target: T32, IKK---alpha (Homo sapiens, UniProt O15111); assay: DiscoveRx KinomeScan binding; details: Entrez CHUK
T32 construct: purchased DiscoveRx scanEDGE panel
T32 sequence (O15111 whole entry): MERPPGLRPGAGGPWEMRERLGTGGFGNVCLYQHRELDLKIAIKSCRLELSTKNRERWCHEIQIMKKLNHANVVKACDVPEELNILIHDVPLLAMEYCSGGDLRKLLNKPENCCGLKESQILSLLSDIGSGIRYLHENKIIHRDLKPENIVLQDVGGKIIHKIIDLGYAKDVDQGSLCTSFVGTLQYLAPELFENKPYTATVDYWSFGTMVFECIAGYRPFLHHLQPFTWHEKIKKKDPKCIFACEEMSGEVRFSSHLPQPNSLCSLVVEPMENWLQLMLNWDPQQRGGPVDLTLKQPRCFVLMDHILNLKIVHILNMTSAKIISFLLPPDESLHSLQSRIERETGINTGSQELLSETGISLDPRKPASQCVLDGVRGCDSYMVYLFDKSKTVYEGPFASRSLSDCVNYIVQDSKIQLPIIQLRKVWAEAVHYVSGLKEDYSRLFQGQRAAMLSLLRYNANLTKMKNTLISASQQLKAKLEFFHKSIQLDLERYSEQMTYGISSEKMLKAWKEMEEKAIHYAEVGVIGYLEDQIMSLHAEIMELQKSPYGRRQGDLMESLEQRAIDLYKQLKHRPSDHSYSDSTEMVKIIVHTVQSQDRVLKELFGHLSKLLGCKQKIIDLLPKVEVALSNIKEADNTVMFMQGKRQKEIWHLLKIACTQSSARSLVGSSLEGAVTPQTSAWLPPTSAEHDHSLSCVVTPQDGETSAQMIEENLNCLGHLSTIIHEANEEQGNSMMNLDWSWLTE

COc1ccc(NC(=O)Nc2ccc3c(c2)C(=O)N([C@@H](C)CO)C[C@H](C)[C@H](CN(C)Cc2ccc4c(c2)OCO4)O3)cc1 [BRD-7880]
Percent Control [1]: 100% | Percent Control [2]: 74% | Percent Control [3]: 65% | Percent Control [4]: 87% | Percent Control [5]: 39% | Percent Control [6]: 100% | Percent Control [7]: 100% | Percent Control [8]: 100% | Percent Control [9]: 100% | Percent Control [10]: 100% | significant inhibition (defined as activity<25% control) across 308 kinases [11]: inhibited aurora kinase B | Percent Control [12]: 100% | Percent Control [13]: 70% | Percent Control [14]: 77% | binding to aurora kinase A [15]: 25 % of control | Percent Control ([15]; AURKA): 22% | binding to aurora kinase C [16]: 3 % of control | Percent Control ([16]; AURKC): 3% | Percent Control [17]: 57% | Percent Control [18]: 39% | Percent Control [19]: 100% | Percent Control [20]: 90% | Percent Control [21]: 36% | Percent Control [22]: 100% | Percent Control [23]: 77% | Percent Control [24]: 86% | Percent Control [25]: 92% | Percent Control [26]: 88% | Percent Control [27]: 97% | cell lines with AUC<0.5 (selectivity) ([28]; 8 doses 0.25-32 μM): 12 of 102 | EC50 [28]: ~1 µM | Percent Control [29]: 93% | Percent Control [30]: 87% | Percent Control [31]: 37% | Percent Control [32]: 61% | Percent Control [33]: 100% | Percent Control [34]: 58%
